Source: patent US9126948B2, “Pyrimidine-4,6-diamine derivatives as PI3K inhibitors” (Incyte Holdings Corporation, priority 2011, dated 2015)
Counter-ions that a name gives are not always drawn.

Tests used:
[1] = test system: Pfeiffer cell line (diffuse large B cell lymphoma); test: Pfeiffer Cell Proliferation Assay; assay type: cell-based; conditions: Homo sapiens, [3H]-thymidine incorporation after 3-4 days
Description: Pfeiffer cell line (diffuse large B cell lymphoma) was purchased from ATCC (Manassas, Va.) and maintained in the culture medium recommended (RPMI and 10% FBS). To measure the anti-proliferation activity of the compounds, the Pfeiffer cells were plated with the culture medium (2×10^3 cells/well/[…]) into 96-well ultra-low binding plates (Corning, Corning, N.Y.), in the presence or absence of a concentration range of test compounds. After 3-4 days, [^3H]-thymidine (1 μCi/well) (PerkinElmer, Boston, Mass.) in PBS was then added to the cell culture for an additional 12 hours before the incorporated radioactivity was separated by filtration with water through GF/B filters (Packard Bioscience, Meridenj, Conn.) and measured by liquid scintillation counting with a TopCount (Packard Bioscience). Pfeiffer cell proliferation data for certain compounds described herein is provided below in Table 8.

PI3Kδ (p110δ/p85α) = PI3Kδ (p110δ/p85α) (Homo sapiens (Human), UniProt O00329); test: PI3Kδ Scintillation Proximity Assay; assay type: biochemical; conditions: 20 μM PIP2, 20 μM ATP, 4 nM PI3Kδ, 210 min; read-out: PI3Kδ SPA IC50
Source text: [γ-^33P]ATP (10 mCi/mL) was purchased from Perkin-Elmer (Waltham, Mass.). Lipid kinase substrate, D-myo-Phosphatidylinositol 4,5-bisphosphate (PtdIns(4,5)P2)D(+)-sn-1,2-di-O-octanoylglyceryl, 3-O-phospho linked (PIP2), CAS 204858-53-7, was purchased from Echelon Biosciences (Salt Lake City, Utah). PI3Kδ (p110δ/p85α) was purchased from Millipore (Bedford, Mass.). ATP, MgCl2, DTT, EDTA, MOPS and CHAPS were purchased from Sigma-Aldrich (St. Louis, Mo.). Wheat Germ Agglutinin (WGA) YSi SPA Scintillation Beads was purchased from GE healthcare life sciences (Piscataway, N.J.).
The kinase reaction was conducted in polystyrene 384-well matrix white plate from Thermo Fisher Scientific in a final volume of 25 μL. Inhibitors were first diluted serially in DMSO and added to the plate wells before the addition of other reaction components. The final concentration of DMSO in the assay was 0.5%. The PI3K assays were carried out at room temperature in 20 mM MOPS, pH 6.7, 10 mM MgCl2, 5 mM DTT and CHAPS 0.03%. Reactions were initiated by the addition of ATP, the final reaction mixture consisted of 20 μM PIP2, 20 μM ATP, 0.2 μCi [γ-^33P]ATP, 4 nM PI3Kδ. Reactions were incubated for 210 min and terminated by the addition of 40 μL SPA beads suspended in quench buffer: 150 mM potassium phosphate pH 8.0, 20% glycerol. 25 mM EDTA, 400 μM ATP. The final concentration of SPA beads was 1.0 mg/mL. After the plate sealing, plates were shaken overnight at room temperature and centrifuged at 1800 rpm for 10 minutes, the radioactivity of the product was determined by scintillation counting on Topcount (Perkin-Elmer). IC50 determination was performed by fitting the curve of percent control activity versus the log of the inhibitor concentration using the GraphPad Prism 3.0 software.

Sequence of PI3Kδ (p110δ/p85α) (O00329 whole entry, species assumed): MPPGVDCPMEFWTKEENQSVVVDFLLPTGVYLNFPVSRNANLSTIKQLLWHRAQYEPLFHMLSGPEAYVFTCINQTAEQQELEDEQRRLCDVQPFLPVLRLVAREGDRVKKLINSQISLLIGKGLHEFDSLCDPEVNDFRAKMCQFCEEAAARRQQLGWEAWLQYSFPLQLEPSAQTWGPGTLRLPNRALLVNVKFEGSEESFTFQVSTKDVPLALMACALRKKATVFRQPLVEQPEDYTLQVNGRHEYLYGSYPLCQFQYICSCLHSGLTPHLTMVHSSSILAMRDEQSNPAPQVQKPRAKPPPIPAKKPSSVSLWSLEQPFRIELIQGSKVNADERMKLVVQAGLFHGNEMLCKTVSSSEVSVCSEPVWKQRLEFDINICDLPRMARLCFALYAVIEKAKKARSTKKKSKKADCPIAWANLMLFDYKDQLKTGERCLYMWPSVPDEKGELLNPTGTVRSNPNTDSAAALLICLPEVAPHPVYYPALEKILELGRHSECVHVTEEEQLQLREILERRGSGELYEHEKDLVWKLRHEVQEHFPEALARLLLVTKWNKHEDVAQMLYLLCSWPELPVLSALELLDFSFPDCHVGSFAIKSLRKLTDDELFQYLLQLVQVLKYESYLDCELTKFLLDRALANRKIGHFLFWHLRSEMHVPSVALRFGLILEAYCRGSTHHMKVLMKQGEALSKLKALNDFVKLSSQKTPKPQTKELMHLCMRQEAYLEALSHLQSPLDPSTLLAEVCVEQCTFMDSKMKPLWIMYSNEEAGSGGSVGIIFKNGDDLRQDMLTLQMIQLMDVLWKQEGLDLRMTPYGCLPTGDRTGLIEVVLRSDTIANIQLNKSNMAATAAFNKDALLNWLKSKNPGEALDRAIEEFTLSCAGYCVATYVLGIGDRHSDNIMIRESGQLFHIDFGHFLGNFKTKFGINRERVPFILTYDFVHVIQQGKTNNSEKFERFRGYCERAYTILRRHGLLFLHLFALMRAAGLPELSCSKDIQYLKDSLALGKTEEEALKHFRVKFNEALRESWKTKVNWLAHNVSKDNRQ
Sequence of PI3Kδ (p110δ/p85α) (P27986 whole entry partner, species assumed): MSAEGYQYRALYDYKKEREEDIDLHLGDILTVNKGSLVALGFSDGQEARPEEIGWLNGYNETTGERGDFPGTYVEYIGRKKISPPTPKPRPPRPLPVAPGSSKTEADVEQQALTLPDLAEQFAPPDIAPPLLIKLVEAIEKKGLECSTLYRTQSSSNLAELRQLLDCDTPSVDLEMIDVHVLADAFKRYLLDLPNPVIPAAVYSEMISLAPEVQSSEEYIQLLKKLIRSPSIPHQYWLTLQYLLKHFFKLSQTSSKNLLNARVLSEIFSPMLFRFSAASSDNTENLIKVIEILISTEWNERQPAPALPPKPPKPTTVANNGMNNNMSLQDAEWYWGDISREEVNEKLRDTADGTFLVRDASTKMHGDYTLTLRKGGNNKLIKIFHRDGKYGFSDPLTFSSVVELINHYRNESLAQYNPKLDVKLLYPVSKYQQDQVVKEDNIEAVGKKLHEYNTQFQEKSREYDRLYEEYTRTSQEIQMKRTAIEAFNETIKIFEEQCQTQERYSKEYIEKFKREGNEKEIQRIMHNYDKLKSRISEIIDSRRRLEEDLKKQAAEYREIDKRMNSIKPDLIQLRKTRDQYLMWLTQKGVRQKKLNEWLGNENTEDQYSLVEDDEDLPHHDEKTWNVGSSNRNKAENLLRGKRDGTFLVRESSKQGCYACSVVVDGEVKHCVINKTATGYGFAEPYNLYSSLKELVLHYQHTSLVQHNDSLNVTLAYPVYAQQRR

With `COc1c(C(C)Nc2ncnc(N)c2C#N)cc(Cl)c(C)c1-c1cncc(S(C)(=O)=O)c1` (stereo not shown) [Example 1, 4-Amino-6-[(1-{5-chloro-2-methoxy-4-methyl-3-[5-(methylsulfonyl)pyridin-3-yl]phenyl}ethyl)amino]pyrimidine-5-carbonitrile trifluoroacetic acid salt] the IC50 [1] was under 20 nM.
`COc1c(C(C)Nc2ncnc(N)c2C#N)cc(Cl)c(C)c1-c1cncc(C(=O)N2CCOCC2)c1` (stereo not shown) [Example 5, 4-amino-6-[(1-{5-chloro-2-methoxy-4-methyl-3-[5-(morpholin-4-ylcarbonyl)pyridin-3-yl]phenyl}ethyl)-amino]pyrimidine-5-carbonitrile] was tested, and the IC50 (PI3Kδ (p110δ/p85α)) was under 20 nM and the IC50 [1] was under 20 nM.
Work on `COc1c(C(C)Nc2ncnc(N)c2C#N)cc(Cl)c(Cl)c1-c1ccc(S(C)(=O)=O)cc1` (stereo not shown) [Example 13, 4-Amino-6-({1-[5,6-dichloro-2-methoxy-4′-(methylsulfonyl)biphenyl-3-yl]ethyl}amino) pyrimidine-5-carbonitrile] yielded an IC50 (PI3Kδ (p110δ/p85α)) of under 20 nM.
Compound `COc1c(C(C)Nc2ncnc(N)c2C#N)cc(Cl)c(Cl)c1-c1cncc(F)c1` (stereo not shown) [Example 12, 4-Amino-6-({1-[4,5-dichloro-3-(5-fluoropyridin-3-yl)-2-methoxyphenyl]ethyl}amino) pyrimidine-5-carbonitrile] has an IC50 (PI3Kδ (p110δ/p85α)) of under 20 nM and an IC50 [1] of under 20 nM.
Compound `COc1c(C(C)Nc2ncnc(N)c2C#N)cc(Cl)c(F)c1-c1cnc(N)nc1` (stereo not shown) [Example 10, 4-amino-6-({1-[3-(2-aminopyrimidin-5-yl)-5-chloro-4-fluoro-2-methoxyphenyl]-ethyl}amino)pyrimidine-5-carbonitrile] has an IC50 (PI3Kδ (p110δ/p85α)) of under 20 nM and an IC50 [1] of under 20 nM.
Work on `COc1c(C(C)Nc2ncnc(N)c2C#N)cc(Cl)c(C)c1-c1cncc(C#N)c1` (stereo not shown) [Example 2, 4-amino-6-({1-[5-chloro-3-(5-cyano-pyridin-3-yl)-2-methoxy-4-methylphenyl]ethyl}amino)-pyrimidine-5-carbonitrile] yielded an IC50 (PI3Kδ (p110δ/p85α)) of under 20 nM and an IC50 [1] of under 20 nM.
Work on `COc1c(C(C)Nc2ncnc(N)c2C#N)cc(Cl)c(Cl)c1-c1cnc(N)nc1` (stereo not shown) [Example 14, 4-Amino-6-({1-[3-(2-aminopyrimidin-5-yl)-4,5-dichloro-2-methoxy-phenyl]ethyl}amino)pyrimidine-5-carbonitrile] yielded an IC50 (PI3Kδ (p110δ/p85α)) of under 20 nM and an IC50 [1] of under 20 nM.
`COc1c(C(C)Nc2ncnc(N)c2C#N)cc(Cl)c(Cl)c1-c1cncc(S(C)(=O)=O)c1` (stereo not shown) [Example 11, 4-Amino-6-[(1-{4,5-dichloro-2-methoxy-3-[5-(methylsulfonyl)pyridin-3-yl]phenyl}ethyl)amino]pyrimidine-5-carbonitrile] was tested, and the IC50 (PI3Kδ (p110δ/p85α)) was under 20 nM and the IC50 [1] was under 20 nM.
Work on `COc1c(C(C)Nc2ncnc(N)c2C#N)cc(Cl)c(F)c1-c1cncc(S(C)(=O)=O)c1` (stereo not shown) [Example 8, 4-amino-6-[(1-{5-chloro-4-fluoro-2-methoxy-3-[5-(methyl-sulfonyl)pyridin-3-yl]phenyl}ethyl)amino]-pyrimidine-5-carbonitrile bis(trifluoroacetate)] yielded an IC50 (PI3Kδ (p110δ/p85α)) of under 20 nM and an IC50 [1] of under 20 nM.
In the case of `COc1c(C(C)Nc2ncnc(N)c2C#N)cc(Cl)c(C)c1-c1cnc(N)nc1` (stereo not shown) [Example 3, 4-amino-6-({1-[3-(2-aminopyrimidin-5-yl)-5-chloro-2-methoxy-4-methyl-phenyl]ethyl}-amino)pyrimidine-5-carbonitrile], the IC50 (PI3Kδ (p110δ/p85α)) is reported as under 20 nM and the IC50 [1] is reported as under 20 nM.
For `COc1c(C(C)Nc2ncnc(N)c2C#N)cc(Cl)c(C)c1-c1ccc(S(C)(=O)=O)cc1` (stereo not shown) [Example 4, 4-amino-6-({1-[5-chloro-2-methoxy-6-methyl-4′-(methyl-sulfonyl)biphenyl-3-yl]ethyl}amino) pyrimidine-5-carbonitrile], the IC50 (PI3Kδ (p110δ/p85α)) was under 20 nM and the IC50 [1] was under 20 nM.
`COc1c(C(C)Nc2ncnc(N)c2C#N)cc(Cl)c(F)c1-c1cncc(F)c1` (stereo not shown) [Example 7, 4-amino-6-({1-[5-chloro-4-fluoro-3-(5-fluoropyridin-3-yl)-2-methoxyphenyl]ethyl}-amino) pyrimidine-5-carbonitrile] showed an IC50 (PI3Kδ (p110δ/p85α)) of under 20 nM and an IC50 [1] of under 20 nM.
With `COc1c(C(C)Nc2ncnc(N)c2C#N)cc(Cl)c(F)c1-c1ccc(S(C)(=O)=O)cc1` (stereo not shown) [Example 9, 4-amino-6-({1-[5-chloro-6-fluoro-2-methoxy-4′-(methylsulfonyl)biphenyl-3-yl]ethyl}amino) pyrimidine-5-carbonitrile] the IC50 (PI3Kδ (p110δ/p85α)) was under 20 nM.
In the case of `COc1c(C(C)Nc2ncnc(N)c2C#N)cc(Cl)c(F)c1-c1cncc(C#N)c1` (stereo not shown) [Example 6, 4-Amino-6-({1-[5-chloro-3-(5-cyanopyridin-3-yl)-4-fluoro-2-methoxyphenyl]ethyl}-amino)pyrimidine-5-carbonitrile], the IC50 (PI3Kδ (p110δ/p85α)) is reported as under 20 nM and the IC50 [1] is reported as under 20 nM.
